Assay results as given in ChEMBL document CHEMBL1154233, “Minor furanocoumarins and coumarins in grapefruit peel oil as inhibitors of human cytochrome P450 3A4” (J Nat Prod, 2009).

These compounds were tested against Cytochrome P450 3A4 (Homo sapiens, UniProt P08684) (assay: Inhibition of CYP3A4 after 30 mins by fluorescence microplate reader assay). Conditions: not given; call rule not given here.
Type: ADME

Sequence of Cytochrome P450 3A4 (P08684 whole entry): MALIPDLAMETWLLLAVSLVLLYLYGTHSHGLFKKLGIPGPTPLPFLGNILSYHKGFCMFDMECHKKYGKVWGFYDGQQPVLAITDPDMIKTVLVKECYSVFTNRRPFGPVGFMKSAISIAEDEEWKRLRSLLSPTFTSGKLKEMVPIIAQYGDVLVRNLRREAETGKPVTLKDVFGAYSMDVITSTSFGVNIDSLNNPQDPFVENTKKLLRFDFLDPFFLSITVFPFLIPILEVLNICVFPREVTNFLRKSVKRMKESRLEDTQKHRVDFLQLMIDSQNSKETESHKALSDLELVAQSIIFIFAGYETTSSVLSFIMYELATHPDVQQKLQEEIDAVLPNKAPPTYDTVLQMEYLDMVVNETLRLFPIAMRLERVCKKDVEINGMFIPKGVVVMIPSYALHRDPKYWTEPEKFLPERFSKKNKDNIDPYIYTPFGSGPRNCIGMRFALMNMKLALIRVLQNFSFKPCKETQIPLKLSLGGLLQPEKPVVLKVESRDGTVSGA

IC50	Compound
Not Active	CCCCCCCCCC1O[C@H](CC/C(C)=C/COc2ccc3ccc(=O)oc3c2)C(C)(C)O1 (some centres not stated)
Not Active	CC(C)=CCC/C(C)=C/COc1ccc2ccc(=O)oc2c1 [AURAPTENE]
Not Active	C/C(=C\COc1ccc2ccc(=O)oc2c1)CC[C@@H](O)C(C)(C)O [R-(+)-MARMIN]

Same assay, conditions: read-out: IC50

IC50 [nM]	Compound
270	CCCCCCCCCC1O[C@H](CC/C(C)=C/COc2c3ccoc3cc3oc(=O)ccc23)C(C)(C)O1 (some centres not stated)
130	CCCCCCCC1O[C@H](CC/C(C)=C/COc2c3ccoc3cc3oc(=O)ccc23)C(C)(C)O1 (some centres not stated)

The next lines start with the compound.

Compound	IC50 [nM]
C/C(=C\COc1c2ccoc2cc2oc(=O)ccc12)CC[C@@H](O)C(C)(C)O	1580
CC(C)=CCC/C(C)=C/COc1c2ccoc2cc2oc(=O)ccc12 [BERGAMOTTIN]	2420
